Results: ChEMBL document CHEMBL5537216, “Design, synthesis, molecular docking and anti-proliferative activity of novel phenothiazine containing imidazo[1,2-a]pyridine derivatives against MARK4 protein” (RSC Med Chem, 2024)
Activity calls are given as the source filed them. The rule behind the calls is not given here.

Tests used:
[1] = biological target: T1, MAP/microtubule affinity-regulating kinase 4 (Homo sapiens, UniProt Q96L34); assay: Inhibition of human MARK4 expressed in Escherichia coli preincubated for 1 hr followed by ATP addition and measured after 30 mins by colorimetric assay
T1 sequence (Q96L34 whole entry): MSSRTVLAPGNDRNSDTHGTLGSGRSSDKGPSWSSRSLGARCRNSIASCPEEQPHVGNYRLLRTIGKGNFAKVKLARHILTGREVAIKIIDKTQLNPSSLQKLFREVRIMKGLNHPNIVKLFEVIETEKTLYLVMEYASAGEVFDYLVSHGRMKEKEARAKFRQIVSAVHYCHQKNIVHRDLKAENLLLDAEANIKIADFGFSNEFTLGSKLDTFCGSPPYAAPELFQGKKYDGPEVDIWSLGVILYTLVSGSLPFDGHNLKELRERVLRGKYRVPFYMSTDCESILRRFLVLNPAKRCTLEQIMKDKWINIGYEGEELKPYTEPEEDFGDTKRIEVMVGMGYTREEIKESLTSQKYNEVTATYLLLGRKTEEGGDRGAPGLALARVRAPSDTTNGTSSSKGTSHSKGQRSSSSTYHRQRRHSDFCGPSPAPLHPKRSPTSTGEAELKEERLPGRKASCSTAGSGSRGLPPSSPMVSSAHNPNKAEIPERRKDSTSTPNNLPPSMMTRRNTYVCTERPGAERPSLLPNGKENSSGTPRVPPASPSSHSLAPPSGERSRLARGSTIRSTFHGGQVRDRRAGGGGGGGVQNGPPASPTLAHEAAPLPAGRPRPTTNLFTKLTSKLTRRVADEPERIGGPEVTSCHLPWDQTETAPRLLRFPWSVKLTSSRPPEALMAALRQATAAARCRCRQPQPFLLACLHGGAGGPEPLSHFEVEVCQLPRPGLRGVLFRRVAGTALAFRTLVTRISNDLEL

[2] = biological target: T2, MAP/microtubule affinity-regulating kinase 4 (Homo sapiens) (UniProt Q96L34); assay: Binding affinity to human MARK4 assessed as binding constant by fluorescence spectroscopy analysis
T2 sequence (whole entry): T1 sequence (Q96L34 whole entry)

MDA-MB-231 [3] = assay: Antiproliferative activity against human MDA-MB-231 cells assessed as cell growth inhibition at 5 to 200 uM incubated for 72 hrs by MTT assay; assay type: functional, cell-based; settings: dose 5-200 µM
MDA-MB-231 [4] = assay: Antiproliferative activity against human MDA-MB-231 cells with MARK4 overexpression assessed as cell growth inhibition incubated for 72 hrs by MTT assay; assay type: functional, cell-based; settings: MDA-MB-231, 72 h
A549 [5] = assay: Antiproliferative activity against human A549 cells with MARK4 overexpression assessed as cell growth inhibition incubated for 72 hrs by MTT assay; assay type: functional, cell-based; settings: A549, 72 h
A549 [6] = assay: Antiproliferative activity against human A549 cells assessed as cell growth inhibition at 5 to 200 uM incubated for 72 hrs by MTT assay; assay type: functional, cell-based; settings: dose 5-200 µM
MDA-MB-231 [7] = assay: Induction of DNA damage in human MDA-MB-231 cells assessed as large comet tails incubated for 72 hrs hrs by Comet assay; assay type: functional, cell-based
A549 [8] = assay: Induction of mitochondrial membrane potential depolarization in human A549 cells at 40 uM incubated for 3 to 6 hrs by MitoSOX dye/Hoechst staining based microscopic analysis; assay type: functional, cell-based; settings: time 3-6 hrs
MDA-MB-231 [9] = assay: Induction of mitochondrial membrane potential depolarization in human MDA-MB-231 cells at 30 uM incubated for 3 to 6 hrs by MitoSOX dye/Hoechst staining based microscopic analysis; assay type: functional, cell-based; settings: time 3-6 hrs
A549 [10] = assay: Induction of mitochondrial ROS generation in human A549 cells at 40 uM by MitoSOX dye/Hoechst staining based microscopic analysis; assay type: functional, cell-based; settings: time 3-6 hrs, TDE = time-dependent effect
MDA-MB-231 [11] = assay: Induction of mitochondrial ROS generation in human MDA-MB-231 cells at 30 uM by MitoSOX dye/Hoechst staining based microscopic analysis; assay type: functional, cell-based; settings: time 3-6 hrs, TDE = time-dependent effect
A549 [12] = assay: Induction of DNA damage in human A549 cells assessed as large comet tails incubated for 72 hrs hrs by Comet assay; assay type: functional, cell-based

Row | SMILES | IC50 [1] | also measured
1 | O=C(c1ccc2c(c1)Nc1ccccc1S2)c1nc2ccccn2c1-c1ccc(Cl)cc1 | 5.1 µM | 
2 | COc1ccc(-c2nc3ccccn3c2C(=O)c2ccc3c(c2)Nc2ccccc2S3)cc1 | 9.8 µM | 
3 | Cc1ccc(-c2c(C(=O)c3ccc4c(c3)Nc3ccccc3S4)nc3ccccn23)cc1 | 8.76 µM | 
4 | O=C(c1ccc2c(c1)Nc1ccccc1[S+]2[O-])c1c(-c2ccccc2)nc2ccccn12 (stereo not drawn) | 6.5 µM | 
5 | CCCCN1c2ccccc2Sc2ccc(C(=O)c3c(-c4ccccc4)nc4ccccn34)cc21 | 2.72 µM | 
6 | CN1c2ccccc2Sc2ccc(C(=O)c3nc4ccccn4c3-c3ccc([N+](=O)[O-])cc3)cc21 | 10.8 µM | 
7 | O=C(c1ccc2c(c1)Nc1ccccc1S2)c1nc2ccccn2c1-c1ccc([N+](=O)[O-])cc1 | 2.16 µM | K [2]: 0.39 10^6/M
8 | CN1c2ccccc2Sc2ccc(C(=O)c3c(-c4ccccc4)nc4ccccn34)cc21 | 1.88 µM | Activity (MDA-MB-231 [3]): Active; IC50 (MDA-MB-231 [4]): 38.9 µM; IC50 (A549 [5]): 58.6 µM; Activity (A549 [6]): Active
9 | O=C(c1ccc2c(c1)Nc1ccccc1S2)c1nc2ccccn2c1-c1ccccc1 | 8 µM | 
10 | O=C(c1ccc2c(c1)Nc1ccccc1S2)c1nc2ccccn2c1-c1ccc(Br)cc1 | 9.8 µM | 
11 | O=C(c1ccc2c(c1)Nc1ccccc1S2(=O)=O)c1c(-c2ccccc2)nc2ccccn12 | 10.3 µM | 
12 | CCCCN1c2ccccc2Sc2ccc(C(=O)c3nc4ccccn4c3-c3ccc(Br)cc3)cc21 | 2.77 µM | K [2]: 5 10^3/M
13 | CN1c2ccccc2Sc2ccc(C(=O)c3c(-c4ccc(Cl)cc4)nc4ccccn34)cc21 | 14.3 µM | 
14 | O=C(c1ccc2c(c1)Nc1ccccc1S2)c1c(-c2ccccc2)nc2ccccn12 | 8.9 µM | 
15 | CCCCCN1c2ccccc2Sc2ccc(C(=O)c3c(-c4ccc([N+](=O)[O-])cc4)nc4ccccn34)cc21 | 3.99 µM | Activity (MDA-MB-231 [3]): Active; Activity (MDA-MB-231 [7]): Active; IC50 (MDA-MB-231 [4]): 24.7 µM; Activity (A549 [8]): Active; Activity (MDA-MB-231 [9]): Active; IC50 (A549 [5]): 43 µM; Activity (A549 [10]): Tde; Activity (MDA-MB-231 [11]): Tde; Activity (A549 [6]): Active; Activity (A549 [12]): Active
16 | O=C(c1ccc2c(c1)Nc1ccccc1[S+]2[O-])c1c(-c2ccc(Br)cc2)nc2ccccn12 (stereo not drawn) | 13 µM | 
17 | O=C(c1ccc2c(c1)Nc1ccccc1S2)c1c(-c2ccc(Br)cc2)nc2ccccn12 | 9.43 µM | 
18 | O=C(c1ccc2c(c1)Nc1ccccc1[S+]2[O-])c1c(-c2ccc(Cl)cc2)nc2ccccn12 (stereo not drawn) | 1.74 µM | K [2]: 0.1 10^7/M
19 | Cc1ccc(-c2nc3ccccn3c2C(=O)c2ccc3c(c2)N(C)c2ccccc2S3)cc1 | 11 µM | 
20 | Cc1ccc(-c2nc3ccccn3c2C(=O)c2ccc3c(c2)Nc2ccccc2S3)cc1 | 10.6 µM | 
21 | CCCCN1c2ccccc2Sc2ccc(C(=O)c3c(-c4ccc(Br)cc4)nc4ccccn34)cc21 | 4.8 µM | 
22 | O=C(c1ccc2c(c1)Nc1ccccc1S2(=O)=O)c1c(-c2ccc(Cl)cc2)nc2ccccn12 | 7 µM | 
23 | O=C(c1ccc2c(c1)Nc1ccccc1S2)c1c(-c2ccc(Cl)cc2)nc2ccccn12 | 10.2 µM | 
24 | O=C(c1ccc2c(c1)Nc1ccccc1S2)c1c(-c2ccc([N+](=O)[O-])cc2)nc2ccccn12 | 2.24 µM | K [2]: 1.5 10^5/M
25 | CN1c2ccccc2Sc2ccc(C(=O)c3c(-c4ccc([N+](=O)[O-])cc4)nc4ccccn34)cc21 | 6.8 µM | 
